From patent US7326721B2 (Hypnion, Inc., priority 2003, dated 2008)

Tests used:
Crl:CD(SD)IGS BR rats = assay: 14-day rat study with recovery; format: in vivo
Experimental: (§1) The purpose of this study was to evaluate the toxicity of HY2901 when administered via oral gavage to rats for at least 14 days and to assess the reversibility, persistence, or delayed occurrence of any effects after a recovery period of up to 14 days.
(§2) Male and female Crl:CD®(SD)IGS BR rats were assigned to seven groups, four main study groups and three groups for toxicokinetics. Each group received dose preparations containing 0.25% methylcellulose, 400 cps in 200 mM acetate buffer, or 10, 30, or 150 mg of test article/kg of body weight (mg/kg/day) at a dose volume of 5 mL/kg.
(§3) Assessment of toxicity was based on mortality, clinical and ophthalmic observations, body weights, food consumption, clinical pathology, organ weights, and macroscopic and microscopic findings. Blood samples were collected for toxicokinetic evaluation.

[1] = 14-day rat study with recovery; format: in vivo; conditions: both sexes, Crl:CD(SD)IGS BR, rat, in vivo, po
Experimental: as §1, §2, §3

[2] = Plasma pharmacokinetics in rats; format: in vivo, rat
From the text: The following pharmacokinetic parameters are computed from the individual plasma concentrations of the modified antihistamine compound using a noncompartmental approach and appropriate validated pharmacokinetic software (e.g., WinNonlin Professional). Concentration values reported as BLQ are set to zero. If concentration data are available, interim calculations are done (non-QC.d data) between periods if possible.
Dose proportionality following study medication is explored by analyzing natural log-transformed pharmacokinetic variables AUC(0-t), AUC(0-inf), and Cmax with a linear model including the natural log-transformed dose as covariates. Dose proportionality is concluded if the 95% confidence interval for the slope of the covariate includes the value of 1. Dose linearity for AUC(0-t), AUC(0-inf), and Cmax is also explored by a linear model. See, e.g., Gibaldi and Perrier, Pharmacokinetics, Second Ed., Marcel Dekker: New York, N.Y. (1982). Nominal sample collection times were used in calculations, except where actual sampling times fell outside the protocol-specified acceptable time ranges. The following parameters were estimated: • Cmax Maximum plasma concentration. • Tmax Time to maximum concentration. • Cmax and Tmax were reported directly from the concentration-time data. • AUC0-T Area under the plasma concentration-time curve from time […] to the last time point with measurable concentrations, estimated bylinear trapezoidal rule. • AUC0-00 Area under the plasma concentration-time curve extrapolated to infinity, calculated using the formula: AUC0-00=AUC0-1+C0/λ0 • Where Ct is the last measurable concentration in plasma and λz is the terminal phase elimination rate constant estimated using log-linear regression during the terminal elimination phase. The number of points used in λz calculation was determined by visual inspection of the data describing the terminal phase. At lest the last three time points with measurable values were used in λz calculation. […]

In the case of `CC(C)(CN1CCC(=C2c3ccc(F)cc3COc3ccccc32)CC1)C(=O)O` [Compound 49a], the mean body weight (Crl:CD(SD)IGS BR rats; 150 mg/kg/day males) is reported as “depression in mean body weight of the 150 mg/kg/day males”, the “mean weights of thymus, lung, and heart” value (Crl:CD(SD)IGS BR rats; 150 mg/kg/day males, terminal sacrifice) is reported as “significantly low relative to brain weight” and the food consumption (Crl:CD(SD)IGS BR rats; 150 mg/kg/day, Week 1) is reported as “depression in food consumption in 150 mg/kg/day rats in Week 1”. The “expected pharmacological effects (clinical signs)” value (Crl:CD(SD)IGS BR rats; 10, 30, or 150 mg/kg/day) was “hypoactivity, ataxia, and the appearance of sleep, were commonly observed”, the unscheduled deaths (Crl:CD(SD)IGS BR rats; 10, 30, or 150 mg/kg/day, 14 days) was “largely restricted to the 150 mg/kg/day groups” and the ophthalmic observations (Crl:CD(SD)IGS BR rats; all groups) was “No ophthalmic lesions”. For the same molecule, the clinical pathology findings (Crl:CD(SD)IGS BR rats; rat, in vivo) was “unrelated to treatment”, the “increases in Cmax and AUC(0-t) with dose” value (Crl:CD(SD)IGS BR rats; rat, in vivo) was “greater than dose proportional” and the “accumulation after multiple dosing” value (Crl:CD(SD)IGS BR rats; rats) was “Minimum accumulation”. The “macroscopic and microscopic findings” value (Crl:CD(SD)IGS BR rats; terminal and recovery sacrifice rats) was “No treatment-related macroscopic observations or microscopic toxic effects”, the NOAEL at 14 days [1] was 30 mg/kg/day and the half-life ([2]; plasma, rat, 3 mg/kg) was 66 min. For the same molecule, the Tmax ([2]; plasma, rat, 3 mg/kg, after oral administration) was 15 min and the Peak plasma levels ([2]; rats, most efficacious dose of 3 mg/kg in the sleep assay) was “less than 1.5 mM”.
